# Measurements taken from ChEMBL document CHEMBL5113544, “Development of Brain-Tumor-Targeted Benzothiazole-Based Boron Complex for Boron Neutron Capture Therapy” (ACS Med Chem Lett, 2022).
# Key:
# [1] = Cytotoxicity against human U-87 MG cells incubated for 22 hrs by cell counting kit analysis; assay type: functional, cell-based, U-87MG ATCC
# [2] = Biodistribution in blood of BALB/c nude mouse xenografted with human U-87 MG cells assessed as boron concentration at 500 mg/kg, ip measured 4 hrs post injection by ICP-MS analysis; assay type: ADME, organism-based; settings: in vivo
# [3] = Octanol/water partition coefficient, logP of compound at 10 mg incubated for 24 hrs by ICP-MS analysis; assay type: physicochemical
# [4] = Cytotoxicity against HEK293 cells incubated for 22 hrs by cell counting kit analysis; assay type: toxicity, cell-based; settings: human
# [5] = Cytotoxicity against human U-87 MG cells assessed as cell survival at 100 uM incubated for 22 hrs by cell counting kit analysis relative to control; assay type: functional, U-87MG ATCC; settings: read-out: Survival
# HEK293 = experiment: Cytotoxicity against HEK293 cells assessed as reduction in cell survival at higher concentrations incubated for 22 hrs by cell counting kit analysis; assay type: toxicity, cell-based; settings: human, hek293, 22 h
# [6] = Cytotoxicity against HEK293 cells assessed as cell survival at upto 100 uM incubated for 22 hrs by cell counting kit analysis relative to control; assay type: toxicity, cell-based; settings: human, read-out: Survival
# [7] = Effective permeability of the compound in pH 7.4 at 25 uM incubated for 4 hrs by PAMPA-BBB assay; assay type: ADME; settings: read-out: Peff
smiles,measurement,setting,value
OB(O)c1ccc(-c2nc3ccccc3s2)cc1,IC50,[1],112 µM
same,Drug uptake,[2],Active
same,logP at 24 h,[3],0.32
same,IC50 at 22 h,[4],265 µM
same,viability at 100 µM,[5],< 43%
same,Activity,HEK293,Toxic
same,"viability at 22 h, up to 100 µM",[6],> 95%
same,"Papp at 4 h, 25 µM",[7],59.8 ×10⁻⁶ cm/s
